Patent publication US20120045393A1 (priority 2009, published 2012)
Non-standard residues stand in square brackets, D forms with d. Residues, ends and D or L forms follow the SMILES beside them. *: point of attachment. DOTA = O=C(O)CN1CCN(CC(=O)O)CCN(CC(=O)*)CCN(CC(=O)O)CC1; Bpa = N[C@@H](Cc1ccc(C(=O)c2ccccc2)cc1)C(=O)O; d2Nal = N[C@H](Cc1ccc2ccccc2c1)C(=O)O; azaGly = NNC(=O)O; Sar = CNCC(=O)O

These molecules were tested on LHRH binding sites on human ovarian cancer cells (EFO-27). Details: not given.
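Further: Cell-associated radioactivity on confluent EFO-27 monolayers in 96-well plates, measured by microplate scintillation counting.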

**Q.** `CN(CC(=O)N[C@@H](Cc1c[nH]cn1)C(=O)N[C@@H](Cc1c[nH]c2ccccc12)C(=O)N[C@@H](CO)C(=O)N[C@@H](Cc1c[nH]cn1)C(=O)N[C@H](CCCNC(=N)N)C(=O)N[C@@H](Cc1c[nH]c2ccccc12)C(=O)N[C@@H](Cc1ccc(C(=NO)c2ccccc2)cc1)C(=O)N1CCC[C@H]1C(=O)NNC(N)=O)C(=O)CN1CCN(CC(=O)O)CCN(CC(=O)O)CCN(CC(=O)O)CC1` [BRU-2907] was tested. Which EC50 did it give?
**A.** 1900 nM

**Q.** With `N=C(N)NCCC[C@H](NC(=O)[C@@H](Cc1ccc2ccccc2c1)NC(=O)CN1CCN(CC(=O)O)CCN(CC(=O)O)CCN(CC(=O)O)CC1)C(=O)N[C@@H](Cc1c[nH]c2ccccc12)C(=O)N[C@@H](CO)C(=O)N[C@@H](Cc1c[nH]cn1)C(=O)N[C@H](CCCNC(=N)N)C(=O)N[C@@H](Cc1c[nH]c2ccccc12)C(=O)N[C@@H](Cc1ccc(C(=O)c2ccccc2)cc1)C(=O)N1CCC[C@H]1C(=O)N[C@H](CO)Cc1ccccc1` [compound 2983] as the molecule, how does the EC50 read?
**A.** 450 nM

**Q.** Which EC50 does the source give for `CN(CC(=O)N[C@@H](Cc1c[nH]cn1)C(=O)N[C@@H](Cc1c[nH]c2ccccc12)C(=O)N[C@@H](CO)C(=O)N[C@@H](Cc1c[nH]cn1)C(=O)N[C@H](CCCNC(=N)N)C(=O)N[C@@H](Cc1c[nH]c2ccccc12)C(=O)N1CCC[C@H]1C(=O)NNC(N)=O)C(=O)CN1CCN(CC(=O)O)CCN(CC(=O)O)CCN(CC(=O)O)CC1` [BRU-2767] (HELM PEPTIDE1{[O=C(O)CN1CCN(CC(=O)O)CCN(CC(=O)[*:2])CCN(CC(=O)O)CC1].[Sar].H.W.S.H.[dR].W.P.[O=C(NN[*:1])[*:2]].[am]}$$$$V2.0) here?
**A.** 10000 nM

**Q.** How did the EC50 turn out when `N=C(N)NCCC[C@H](NC(=O)[C@H](CO)NC(=O)[C@H](Cc1c[nH]c2ccccc12)NC(=O)[C@H](CCCNC(=N)N)NC(=O)[C@@H](Cc1ccc2ccccc2c1)NC(=O)CN1CCN(CC(=O)O)CCN(CC(=O)O)CCN(CC(=O)O)CC1)C(=O)N[C@H](Cc1c[nH]c2ccccc12)C(=O)N[C@@H](Cc1c[nH]c2ccccc12)C(=O)N[C@@H](Cc1ccc(C(=O)c2ccccc2)cc1)C(=O)N1CCC[C@H]1C(=O)NNC(N)=O` [compound 3001] ({DOTA}-[d2Nal]RWSR[dW]W[Bpa]P[azaGly]-NH2) was run?
**A.** 3280 nM

**Q.** `CC(C)C[C@H](NC(=O)[C@H](Cc1c[nH]c2ccccc12)NC(=O)[C@H](CCCNC(=N)N)NC(=O)[C@@H](Cc1ccc2ccccc2c1)NC(=O)CN1CCN(CC(=O)O)CCN(CC(=O)O)CCN(CC(=O)O)CC1)C(=O)N[C@@H](Cc1c[nH]cn1)C(=O)N[C@H](CCCNC(=N)N)C(=O)N[C@@H](Cc1c[nH]c2ccccc12)C(=O)N[C@@H](Cc1ccc(C(=O)c2ccccc2)cc1)C(=O)N1CCC[C@H]1C(=O)NNC(N)=O` [compound 3113] ({DOTA}-[d2Nal]RWLH[dR]W[Bpa]P[azaGly]-NH2) was tested. Which EC50 did it give?
**A.** 1130 nM

**Q.** For `CN(CC(=O)N[C@@H](Cc1c[nH]cn1)C(=O)N[C@@H](Cc1c[nH]c2ccccc12)C(=O)N[C@@H](CO)C(=O)N[C@@H](Cc1c[nH]cn1)C(=O)N[C@H](CCCNC(=N)N)C(=O)N[C@@H](Cc1c[nH]c2ccccc12)C(=O)N[C@H](C(=O)N1CCC[C@H]1C(=O)NNC(N)=O)C(c1ccccc1)c1ccccc1)C(=O)CN1CCN(CC(=O)O)CCN(CC(=O)O)CCN(CC(=O)O)CC1` [BRU-2721], which EC50 is on record?
**A.** 4550 nM

**Q.** `CN(CC(=O)N[C@@H](Cc1c[nH]cn1)C(=O)N[C@@H](Cc1c[nH]c2ccccc12)C(=O)N[C@@H](CO)C(=O)N[C@@H](Cc1c[nH]cn1)C(=O)N[C@H](CCCNC(=N)N)C(=O)N[C@@H](Cc1c[nH]c2ccccc12)C(=O)N[C@@H](Cc1c[nH]cn1)C(=O)N1CCC[C@H]1C(=O)NNC(N)=O)C(=O)CN1CCN(CC(=O)O)CCN(CC(=O)O)CCN(CC(=O)O)CC1` [BRU-2763] (HELM PEPTIDE1{[O=C(O)CN1CCN(CC(=O)O)CCN(CC(=O)[*:2])CCN(CC(=O)O)CC1].[Sar].H.W.S.H.[dR].W.H.P.[O=C(NN[*:1])[*:2]].[am]}$$$$V2.0) was tested. Which EC50 did it give?
**A.** 13600 nM

**Q.** How did the EC50 turn out when `CNCC(=O)N[C@@H](CCCNC(=N)N)C(=O)N[C@@H](Cc1c[nH]c2ccccc12)C(=O)N[C@@H](CO)C(=O)N[C@@H](Cc1c[nH]cn1)C(=O)N[C@H](CCCNC(=N)N)C(=O)N[C@@H](Cc1c[nH]c2ccccc12)C(=O)N[C@@H](Cc1ccc(C(=O)c2ccccc2)cc1)C(=O)N1CCC[C@H]1C(=O)NCCCCCNC(=O)CN1CCN(CC(=O)O)CCN(CC(=O)O)CCN(CC(=O)O)CC1` [compound 3085] was run?
**A.** 400 ± 250 nM

**Q.** For `N=C(N)NCCC[C@H](NC(=O)[C@@H](Cc1ccc2ccccc2c1)NC(=O)CN1CCN(CC(=O)O)CCN(CC(=O)O)CCN(CC(=O)O)CC1)C(=O)N[C@@H](Cc1c[nH]c2ccccc12)C(=O)N[C@@H](Cc1ccncc1)C(=O)N[C@@H](Cc1c[nH]cn1)C(=O)N[C@H](CCCNC(=N)N)C(=O)N[C@@H](Cc1c[nH]c2ccccc12)C(=O)N[C@@H](Cc1ccc(C(=O)c2ccccc2)cc1)C(=O)N1CCC[C@H]1C(=O)NNC(N)=O` [compound 2957], which EC50 is on record?
**A.** 840 nM

**Q.** With `CNCC(=O)N[C@@H](Cc1c[nH]cn1)C(=O)N[C@@H](Cc1c[nH]c2ccccc12)C(=O)N[C@@H](CO)C(=O)N[C@@H](Cc1c[nH]cn1)C(=O)N[C@H](CCCNC(=N)N)C(=O)N[C@@H](Cc1c[nH]c2ccccc12)C(=O)N[C@@H](Cc1ccc(O)cc1)C(=O)N1CCC[C@H]1C(=O)NNC(N)=O` [BRU-2439, [Sar^1, Darg^6, azaGly^10]LHRH-II] (HELM PEPTIDE1{[Sar].H.W.S.H.[dR].W.Y.P.[O=C(NN[*:1])[*:2]].[am]}$$$$V2.0; N-terminus assumed) as the molecule, how does the EC50 read?
**A.** 250 nM

**Q.** How did the EC50 turn out when `COc1ccccc1CNC(=O)[C@@H]1CCCN1C(=O)[C@H](Cc1ccc(C(=O)c2ccccc2)cc1)NC(=O)[C@H](Cc1c[nH]c2ccccc12)NC(=O)[C@@H](CCCNC(=N)N)NC(=O)[C@H](Cc1c[nH]cn1)NC(=O)[C@H](CO)NC(=O)[C@H](Cc1c[nH]c2ccccc12)NC(=O)[C@H](CCCNC(=N)N)NC(=O)[C@@H](Cc1ccc2ccccc2c1)NC(=O)CN1CCN(CC(=O)O)CCN(CC(=O)O)CCN(CC(=O)O)CC1` [compound 3020] was run?
**A.** 450 nM

Same assay, conditions: EFO-27 cells, competition with [125I-Tyr8]BRU-2477, 90 min

**Q.** How did the EC50 turn out when `N=C(N)NCCC[C@H](NC(=O)[C@@H](Cc1ccc2ccccc2c1)NC(=O)CN1CCN(CC(=O)O)CCN(CC(=O)O)CCN(CC(=O)O)CC1)C(=O)N[C@@H](Cc1c[nH]c2ccccc12)C(=O)N[C@@H](CO)C(=O)N[C@@H](Cc1c[nH]cn1)C(=O)N[C@H](CCCNC(=N)N)C(=O)N[C@@H](Cc1c[nH]c2ccccc12)C(=O)N[C@@H](Cc1ccc(C(=O)c2ccccc2)cc1)C(=O)N1CCC[C@H]1C(=O)NCC(=O)NCCCCO` [compound 2978] was run?
**A.** 2000 nM

**Q.** How did the EC50 turn out when `N=C(N)NCCC[C@H](NC(=O)[C@@H](Cc1ccc2ccccc2c1)NC(=O)CN1CCN(CC(=O)O)CCN(CC(=O)O)CCN(CC(=O)O)CC1)C(=O)N[C@@H](Cc1c[nH]c2ccccc12)C(=O)N[C@@H](CO)C(=O)N[C@@H](Cc1c[nH]cn1)C(=O)N[C@H](CCCNC(=N)N)C(=O)N[C@@H](Cc1c[nH]c2ccccc12)C(=O)N[C@@H](Cc1ccc(C(=O)c2ccccc2)cc1)C(=O)N1CCC[C@H]1C(=O)NCC(=O)N[C@@H](Cc1ccccc1)C(N)=O` [compound 2980] ({DOTA}-[d2Nal]RWSH[dR]W[Bpa]PGF-NH2) was run?
**A.** 970 nM

Same assay, conditions: Table 5: modifications of amino acids at positions 1 and 2; in vitro binding on EFO-27 cells

**Q.** With `CN(CC(=O)N[C@@H](Cc1ccc(O)cc1)C(=O)N[C@@H](Cc1c[nH]c2ccccc12)C(=O)N[C@@H](CO)C(=O)N[C@@H](Cc1c[nH]cn1)C(=O)N[C@H](CCCNC(=N)N)C(=O)N[C@@H](Cc1c[nH]c2ccccc12)C(=O)N[C@@H](Cc1ccc(C(=O)c2ccccc2)cc1)C(=O)N1CCC[C@H]1C(=O)NNC(N)=O)C(=O)CN1CCN(CC(=O)O)CCN(CC(=O)O)CCN(CC(=O)O)CC1` [BRU-2814] ({DOTA}-[Sar]YWSH[dR]W[Bpa]P[azaGly]-NH2) as the molecule, how does the EC50 read?
**A.** 2240 nM

**Q.** `N=C(N)NCCC[C@@H](NC(=O)[C@H](Cc1c[nH]cn1)NC(=O)[C@H](CO)NC(=O)[C@H](Cc1c[nH]c2ccccc12)NC(=O)[C@H](Cc1c[nH]cn1)NC(=O)[C@@H](Cc1ccccc1)NC(=O)CN1CCN(CC(=O)O)CCN(CC(=O)O)CCN(CC(=O)O)CC1)C(=O)N[C@@H](Cc1c[nH]c2ccccc12)C(=O)N[C@@H](Cc1ccc(C(=O)c2ccccc2)cc1)C(=O)N1CCC[C@H]1C(=O)NNC(N)=O` [BRU-2894] was tested. Which EC50 did it give?
**A.** 2000 nM

**Q.** `N=C(N)NCCC[C@H](NC(=O)[C@@H]1Cc2ccccc2CN1C(=O)CNC(=O)CN1CCN(CC(=O)O)CCN(CC(=O)O)CCN(CC(=O)O)CC1)C(=O)N[C@@H](Cc1c[nH]c2ccccc12)C(=O)N[C@@H](CO)C(=O)N[C@@H](Cc1c[nH]cn1)C(=O)N[C@H](CCCNC(=N)N)C(=O)N[C@@H](Cc1c[nH]c2ccccc12)C(=O)N[C@@H](Cc1ccc(C(=O)c2ccccc2)cc1)C(=O)N1CCC[C@H]1C(=O)NNC(N)=O` [BRU-3052] was tested. Which EC50 did it give?
**A.** 550 nM

**Q.** For `CN(CC(=O)N[C@@H](Cc1cn(C)cn1)C(=O)N[C@@H](Cc1c[nH]c2ccccc12)C(=O)N[C@@H](CO)C(=O)N[C@@H](Cc1c[nH]cn1)C(=O)N[C@H](CCCNC(=N)N)C(=O)N[C@@H](Cc1c[nH]c2ccccc12)C(=O)N[C@@H](Cc1ccc(C(=O)c2ccccc2)cc1)C(=O)N1CCC[C@H]1C(=O)NNC(N)=O)C(=O)CN1CCN(CC(=O)O)CCN(CC(=O)O)CCN(CC(=O)O)CC1` [BRU-2741], which EC50 is on record?
**A.** 2990 nM

Same assay, conditions: Table 13: linker between AA1 and DO3A10CM; EFO-27 cells

**Q.** Which EC50 does the source give for `CN(CC(=O)N[C@@H](Cc1c[nH]cn1)C(=O)N[C@@H](Cc1c[nH]c2ccccc12)C(=O)N[C@@H](CO)C(=O)N[C@@H](Cc1c[nH]cn1)C(=O)N[C@H](CCCNC(=N)N)C(=O)N[C@@H](Cc1c[nH]c2ccccc12)C(=O)N[C@@H](Cc1ccc(C(=O)c2ccccc2)cc1)C(=O)N1CCC[C@H]1C(=O)NNC(N)=O)C(=O)CNC(=O)CN1CCN(CC(=O)O)CCN(CC(=O)O)CCN(CC(=O)O)CC1` [compound 2717] here?
**A.** 1530 nM

Same assay, conditions: Table 15: C-terminus chelator-functionalized peptides; EFO-27 cells, vs [125I-Tyr8]BRU-2477

**Q.** How did the EC50 turn out when `CNCC(=O)N[C@@H](CCCNC(=N)N)C(=O)N[C@@H](Cc1c[nH]c2ccccc12)C(=O)N[C@@H](CO)C(=O)N[C@@H](Cc1c[nH]cn1)C(=O)N[C@H](CCCNC(=N)N)C(=O)N[C@@H](Cc1c[nH]c2ccccc12)C(=O)N[C@@H](Cc1ccc(C(=O)c2ccccc2)cc1)C(=O)N1CCC[C@H]1CNC(=O)CN1CCN(CC(=O)O)CCN(CC(=O)O)CCN(CC(=O)O)CC1` [compound 3117] (HELM PEPTIDE1{[Sar].R.W.S.H.[dR].W.[O=C(c1ccccc1)c1ccc(C[C@H](N[*:1])C(=O)[*:2])cc1].[O=C(O)CN1CCN(CC(=O)O)CCN(CC(=O)NC[C@@H]2CCCN2[*:1])CCN(CC(=O)O)CC1]}$$$$V2.0; N-terminus assumed) was run?
**A.** 340 nM
